Measurements reported in patent publication US20240197715A1, “PHARMACEUTICAL COMBINATIONS AND USES THEREOF” (NOVARTIS AG, priority 2022, published 2024).
Values joined by “and” are separate entries in the source; they are usually repeats but may differ in a detail not shown here. Equal values may be shown once.

Columns and labels:
Type in all cases: in vivo
[1] = Body weight / tolerability in T84 tumor-bearing nude mice; conditions: T84 study; 28-days TMZ cycle
Procedure: (§1) Tumor volumes (TVol), determined from caliper measurements (using the formula I*w2*TT/6) were measured two times per week. Tumor response was quantified by the change in tumor volume (endpoint minus starting value in mm^3) as the T/C. In the case of a tumor regression or to assess the percentage of change in TVol, the tumor response was quantified by the percentage of regression of the starting TVol. The body-weight (BW) of the animal was measured three times per week allowing calculation at any particular time-point relative to the day of initiation of treatment (day 0) of the percentage change in BW (4% BW).

[2] = Body weight / tolerability in SHP-77 tumor-bearing nude mice; conditions: SHP-77 study; single agent
Procedure: as §1

[3] = test system: SW620 (CCL-227, ATCC) MSS colorectal carcinoma xenografts; test: SW620 MSS CRC xenograft efficacy in nude mice; conditions: SW620; TMZ p.o. 5 consecutive days within 21 days cycle (100 mg/kg)
Procedure: SW620 (CCL-227, ATCC) [MSS colorectal carcinoma (CRC)] was cultured in DMEM (#1-26F01-I, AMIMED) supplemented with 10% FCS (#2-0-1F30-I, BioConcept), 4 mM L-glutamine (#5-10K50-H, BioConcept) and 1 mM Sodium pyruvate (#5-60F00-H, BioConcept). Cells were passaged by washing first with Dulbecco's PBS without Ca^2+/Mg^2+ (#3-05F29-1, AMIMED), trypsinising cells with Trypsin 0.05% in PBS with EDTA (#5-51F00-H, AMIMED), centrifuging in the respective culture media, and splitting cells into fresh media at a ratio of 1:8, 2 times per week.
Athymic nude mice (Charles River, Germany) were allowed to adapt for 7 days upon arrival at the animal facility and housed in a pathogen-controlled environment (5 mice/Type III cage) with access to food and water ad libitum. Animals were identified with transponders. Studies described in this report were performed according to procedures covered by a permit number issued by the Kantonales Veterinäramt Basel-Stadt.
Subcutaneous tumors were initiated by injecting 5.0×10^6 SW620 tumor cells in 50% Matrigel (#354234, Corning) in HBSS (#H6648, SIGMA) in the right flank of nude mice. The efficacy experiment (n=6), started 11 days post-cell injection.
Compound A and Temozolomide were made-up fresh on a weekly basis and kept at 4° C. and protected from light. Compound A was dissolved in 20% Hydroxypropyl-ß-Cyclodextrine (HP-ß-CD, #H107-100G, SIGMA) in UltraPure™ Water (#10977-035, Invitrogen) and administered p.o. at 10 ml/kg. Temozolomide was dissolved in 30% PEG-400 (#202398-500G, SIGMA) and 70% Dulbecco's PBS without Ca^2+/Mg^2+ (#3-05F29-1, AMIMED) and administered p.o. at 10 mL/kg on 5 consecutive days within a 21 days cycle. Irinotecan was made-up fresh for each treatment once a week by diluting with NaCl 0.9% (#3-06S00-I, BioConcept). The solution was administered i.v. at 5 mL/kg.
as §1, with “I*w2*π/6)” for “I*w2*TT/6)”, “T/C (the ratio between the tumor volume in the treated group and in the untreated control group).” for “T/C.”
At day 43 post-cell injection, irinotecan was administered intravenously at 15 mg/kg once weekly for 7 weeks in combination with Compound A, also administered from day 43, orally at 120 mg/kg daily for 52 days.
Starting 11 days post-cell injection, temozolomide was administered orally on a 21 day cycle of 5 consecutive days at 100 mg/kg on 5 consecutive days (day 11 to day 15 and day 32 to day 36). At day 43 post-cell injection, to the first group irinotecan was administered intravenously at 15 mg/kg once weekly for 6 weeks, and to the second group irinotecan was administered intravenously at 15 mg/kg once weekly for 6 weeks in combination with Compound A, also administered from day 43, orally at 120 mg/kg daily for 46 days.

[4] = Body weight / tolerability in SW620 tumor-bearing nude mice; conditions: SW620 study; 21-days TMZ cycle
Procedure: as §1, with “I*w2*π/6)” for “I*w2*TT/6)”, “T/C (the ratio between the tumor volume in the treated group and in the untreated control group).” for “T/C.”

[5] = test system: SHP-77 (CRL-2195, ATCC) MSS small cell lung carcinoma xenografts; test: SHP-77 MSS SCLC xenograft efficacy in nude mice; conditions: SHP77; TMZ 25 mg/kg p.o. 5 consecutive days within 28 days cycle
Procedure: SHP-77 (CRL-2195, ATCC) is a MSS small cell lung carcinoma (SCLC). It was cultured in RPMI 1640 Medium, GlutaMAX™ (#61870036, GIBCO) supplemented with 10% FCS (#2-O-1F30-I, BioConcept). Cells were passaged by washing first with Dulbecco's PBS without Ca^2+/Mg^2+ (#3-05F29-1, AMIMED), trypsinising cells with Trypsin 0.05% in PBS with EDTA (#5-51F00-H, AMIMED), centrifuging in the respective culture media, and splitting cells into fresh media at a ratio of 1:8, 2 times per week.
Athymic nude mice (Charles River, Germany) were allowed to adapt for 7 days upon arrival at the animal facility and housed in a pathogen-controlled environment (5 mice/Type III cage) with access to food and water ad libitum. Animals were identified with transponders. […]
as §1

Cn1nnc2c(C(N)=O)ncn2c1=O [temozolomide]
body weight change [1]: slight body weight loss but mice always recovered at the end of the 28-days cycle | tolerability [2]: well tolerated | tumor regression after 1 cycle of temozolomide [3]: 30-50% and 40% | body weight change [4]: dose-dependent body weight loss but mice always recovered at the end of the 21-days cycle | tumor regression after 2 cycles [5]: 90%
